Calls of active or inactive are those of the source.
Key:
Paired box protein Pax-8 = Paired box protein Pax-8 (Homo sapiens, UniProt Q06710); test: inhibitors of PAX8-driven TPO luciferase reporter, dose response, RMG-I cells, cherry-pick (AID 687027); assay type: functional, cell-based;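 further: luciferase reporter driven by Pax8 target thyroperoxidase promoter measured by SteadyGlo luminescence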
[1] = NIH:OVCAR-3 ovarian cancer cell cytotoxicity, dose response, PAX8 inhibitor project, plate reader, dry powder samples (AID 743044); assay type: functional, cell-based
[2] = growth suppression of PTEN-null colon cells, dose response, cell-based, HCT116 PTEN knockout (AID 1047); assay type: functional;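 further: HCT116 colon tumor cells with PTEN knocked out; cells exposed to compound for 60 hours before readout; potency for loss of cell viability measured by luminescence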
[3] = growth suppression of beta-catenin-knockout colon cells, dose response, cell-based, HCT116, human colon tumor (AID 1045); assay type: functional;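 further: HCT116 colon tumor cells with beta catenin knocked out; cells exposed to compound for 60 hours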
Caspase-6 = target: T1, Caspase-6 (Homo sapiens, UniProt P55212); test: human caspase-6 inhibitors, dose response, biochemical, VEID-R110 fluorescence, cherry-pick (AID 720632)
T1 sequence (P55212 whole entry): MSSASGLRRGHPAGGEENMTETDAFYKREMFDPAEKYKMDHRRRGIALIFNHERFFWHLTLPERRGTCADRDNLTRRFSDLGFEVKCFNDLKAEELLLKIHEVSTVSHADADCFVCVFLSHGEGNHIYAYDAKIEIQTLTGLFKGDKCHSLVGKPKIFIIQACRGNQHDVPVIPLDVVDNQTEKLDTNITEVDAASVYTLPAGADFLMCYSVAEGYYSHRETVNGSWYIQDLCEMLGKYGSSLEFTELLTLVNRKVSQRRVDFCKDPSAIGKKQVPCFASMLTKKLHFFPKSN

[4] = target: T2, Histone-lysine N-methyltransferase NSD2 (Homo sapiens, UniProt O96028); assay type: biochemical
T2 sequence (O96028 whole entry): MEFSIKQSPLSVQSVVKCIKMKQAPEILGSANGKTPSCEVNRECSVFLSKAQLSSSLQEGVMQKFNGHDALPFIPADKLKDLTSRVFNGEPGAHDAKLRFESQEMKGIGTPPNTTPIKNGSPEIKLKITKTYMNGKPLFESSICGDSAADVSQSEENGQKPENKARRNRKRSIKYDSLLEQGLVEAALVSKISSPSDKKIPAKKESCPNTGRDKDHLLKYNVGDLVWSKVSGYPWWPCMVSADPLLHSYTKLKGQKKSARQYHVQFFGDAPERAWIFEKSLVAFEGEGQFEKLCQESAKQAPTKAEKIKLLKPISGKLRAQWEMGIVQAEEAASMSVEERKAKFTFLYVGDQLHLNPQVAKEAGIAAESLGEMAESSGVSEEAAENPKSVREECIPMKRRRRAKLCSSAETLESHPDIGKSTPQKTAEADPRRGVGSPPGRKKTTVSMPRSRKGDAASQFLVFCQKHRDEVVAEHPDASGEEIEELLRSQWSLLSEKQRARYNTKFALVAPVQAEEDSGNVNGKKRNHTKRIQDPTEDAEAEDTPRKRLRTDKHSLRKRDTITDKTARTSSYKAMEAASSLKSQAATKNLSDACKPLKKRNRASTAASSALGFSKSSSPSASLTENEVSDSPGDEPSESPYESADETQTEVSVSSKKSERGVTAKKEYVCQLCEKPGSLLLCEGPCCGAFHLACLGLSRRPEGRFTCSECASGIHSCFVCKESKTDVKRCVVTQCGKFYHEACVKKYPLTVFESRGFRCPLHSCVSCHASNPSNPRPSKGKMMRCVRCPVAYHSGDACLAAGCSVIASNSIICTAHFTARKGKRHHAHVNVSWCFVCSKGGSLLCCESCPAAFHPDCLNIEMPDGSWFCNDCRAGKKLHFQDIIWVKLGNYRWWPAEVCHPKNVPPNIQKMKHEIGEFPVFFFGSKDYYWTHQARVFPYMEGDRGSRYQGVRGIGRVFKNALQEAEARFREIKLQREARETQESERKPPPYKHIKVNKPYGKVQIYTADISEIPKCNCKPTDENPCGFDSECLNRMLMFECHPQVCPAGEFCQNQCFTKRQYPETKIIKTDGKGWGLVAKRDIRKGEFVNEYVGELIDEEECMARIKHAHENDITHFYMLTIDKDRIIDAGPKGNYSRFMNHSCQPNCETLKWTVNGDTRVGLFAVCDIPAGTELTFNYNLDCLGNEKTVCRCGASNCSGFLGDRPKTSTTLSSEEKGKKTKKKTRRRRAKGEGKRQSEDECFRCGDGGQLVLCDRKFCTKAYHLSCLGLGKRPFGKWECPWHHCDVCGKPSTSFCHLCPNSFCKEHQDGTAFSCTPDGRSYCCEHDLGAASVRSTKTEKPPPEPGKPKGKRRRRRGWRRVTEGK

[5] = target: FAD-linked sulfhydryl oxidase ALR (Homo sapiens, UniProt P55789); test: inhibitors of human ALR sulfhydryl oxidase, dose response, biochemical, H2O2 detection, luminescence, cherry-pick (AID 493248)
[6] = target: T3, Heat shock factor protein 1 (Mus musculus, UniProt P38532); test: inhibition of MG132-induced HSE-luciferase signal, confirmation, cell-based, NIH3T3, luminescence, dose retest (AID 2382); assay type: functional;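 further: NIH3T3 fibroblasts with HSF1-driven luciferase reporter stressed by proteasome inhibitor MG132; luminescence from HSF1-driven luciferase expression after 8 hours of MG132 stress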
T3 sequence (P38532 whole entry): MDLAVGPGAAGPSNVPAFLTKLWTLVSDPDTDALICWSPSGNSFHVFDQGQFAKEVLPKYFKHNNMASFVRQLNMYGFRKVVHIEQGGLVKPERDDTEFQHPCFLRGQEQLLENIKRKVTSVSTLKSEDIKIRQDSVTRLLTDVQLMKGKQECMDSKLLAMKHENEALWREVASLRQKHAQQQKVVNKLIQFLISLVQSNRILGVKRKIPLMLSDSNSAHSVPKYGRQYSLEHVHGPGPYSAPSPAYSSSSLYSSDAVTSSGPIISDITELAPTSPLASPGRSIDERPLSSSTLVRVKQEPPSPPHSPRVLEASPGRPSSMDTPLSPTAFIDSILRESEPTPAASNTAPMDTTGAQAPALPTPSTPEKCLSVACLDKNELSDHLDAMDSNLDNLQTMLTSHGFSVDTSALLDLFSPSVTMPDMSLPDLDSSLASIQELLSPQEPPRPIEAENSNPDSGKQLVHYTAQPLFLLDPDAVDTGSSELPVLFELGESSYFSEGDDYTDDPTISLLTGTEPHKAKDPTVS

[7] = THP-1 cell cytotoxicity, dose response, cytotoxicity control for Vif-APOBEC3G degradation inhibitor project, THP-1 cells (AID 1117359); assay type: functional; details: Human immunodeficiency virus 1, THP-1
[8] = cytotoxicity toward NIH3T3 fibroblasts, dose response, counter-screen, cell-based, ATP luminescence, mouse fibroblasts (AID 2010); assay type: functional;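 further: cells exposed to compound for about 90 hours before reading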
[9] = inhibitors of intracellular T. cruzi replication, confirmation, NIH3T3 host cells, beta-gal luminescence (AID 2044); assay type: functional, cell-based;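 further: intracellular parasites grown in NIH/3T3 mouse fibroblasts as host cells; luminescent beta-galactosidase reporter signal from transgenic T. cruzi replicating inside host cells; inhibitors lower the luminescence signal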
Estrogen receptor beta = Estrogen receptor beta (Homo sapiens, UniProt Q92731);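 further: recombinant ER-beta bound to coactivator SRC1 peptide in presence of estradiol agonist; inhibitors block coactivator peptide binding and lower the FRET signal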
Prothrombin = Prothrombin (Homo sapiens, UniProt P00734); test: Thrombin 1536 HTS Dose Response Confirmation. [Related pubchem assays: 1046 (Thrombin 1536 HTS; hits were confirmed in this assay)]; assay type: functional
INS1 = test: beta cell apoptosis inhibitors, cytokine rescue, dose response, luminescence, retest (AID 449756); assay type: functional, cell-based; details: Rattus norvegicus;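 further: cell death triggered by IL-1 beta plus TNF-alpha plus IFN-gamma mixture; protective hits raise ATP signal compared with cytokine alone wells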
[10] = Luminescence Cell-Based Dose Retest to Confirm Inhibitors of Cancer Stem Cells. [Related pubchem assays (depositor defined):AID2717, AID2721]; assay type: functional; details: Homo sapiens

Chain of FAD-linked sulfhydryl oxidase ALR (P55789 whole entry): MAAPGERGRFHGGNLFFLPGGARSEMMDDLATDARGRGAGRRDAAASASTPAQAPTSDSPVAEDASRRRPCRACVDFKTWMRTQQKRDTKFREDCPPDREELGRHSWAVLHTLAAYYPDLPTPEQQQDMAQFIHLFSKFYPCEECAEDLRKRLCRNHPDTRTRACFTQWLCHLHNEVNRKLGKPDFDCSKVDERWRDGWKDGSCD
Chain of Paired box protein Pax-8 (Q06710 whole entry): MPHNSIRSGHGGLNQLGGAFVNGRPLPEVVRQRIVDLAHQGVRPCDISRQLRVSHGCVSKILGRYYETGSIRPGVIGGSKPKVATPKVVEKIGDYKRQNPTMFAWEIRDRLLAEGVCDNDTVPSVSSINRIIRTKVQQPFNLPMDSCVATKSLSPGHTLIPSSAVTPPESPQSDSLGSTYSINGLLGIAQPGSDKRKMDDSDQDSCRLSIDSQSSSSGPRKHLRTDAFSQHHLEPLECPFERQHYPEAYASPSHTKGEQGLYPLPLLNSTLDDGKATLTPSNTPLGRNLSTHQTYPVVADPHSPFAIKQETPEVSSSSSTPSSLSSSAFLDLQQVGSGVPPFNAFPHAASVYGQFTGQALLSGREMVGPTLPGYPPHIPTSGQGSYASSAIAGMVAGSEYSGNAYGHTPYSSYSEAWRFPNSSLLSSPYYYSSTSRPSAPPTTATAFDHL
Chain of Estrogen receptor beta (Q92731 whole entry): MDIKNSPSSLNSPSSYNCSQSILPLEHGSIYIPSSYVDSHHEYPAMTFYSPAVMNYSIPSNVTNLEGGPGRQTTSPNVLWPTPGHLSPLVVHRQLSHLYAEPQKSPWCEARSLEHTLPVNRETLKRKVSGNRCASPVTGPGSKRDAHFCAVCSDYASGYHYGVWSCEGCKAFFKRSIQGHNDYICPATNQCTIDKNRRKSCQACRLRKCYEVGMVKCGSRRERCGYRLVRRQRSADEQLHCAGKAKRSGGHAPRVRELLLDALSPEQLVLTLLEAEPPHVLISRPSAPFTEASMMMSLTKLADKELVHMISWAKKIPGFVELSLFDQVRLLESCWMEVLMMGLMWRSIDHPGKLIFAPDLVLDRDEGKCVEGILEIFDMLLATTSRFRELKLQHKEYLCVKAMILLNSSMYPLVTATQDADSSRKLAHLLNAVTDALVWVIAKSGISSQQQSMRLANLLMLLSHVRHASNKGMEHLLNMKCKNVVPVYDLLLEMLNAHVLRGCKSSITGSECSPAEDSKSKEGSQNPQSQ

C[C@@H]1CN([C@H](C)CO)C(=O)c2cc(NS(=O)(=O)c3cccs3)ccc2O[C@@H](C)CCCCO[C@H]1CN(C)Cc1ccc(Cl)c(Cl)c1
AC50 (Paired box protein Pax-8): 9.2 µM (active) | AC50 [1]: 46.5 µM (active)

O=C(/C=C/c1ccc(Cl)cc1)c1cccnc1
EC50 [2]: 1.75 µM (active) | EC50 [3]: 0.793 µM (active)

CCc1ccc2cccc3c2c1N=CN3C
AC50 (Caspase-6): 6.79 µM (active) | AC50 [4]: 7.21 µM (active) | AC50 [5]: 0.24 µM (active)

CCOc1ccccc1NC(=O)Cn1c(-c2ccc(Cl)cc2)noc1=O
EC50 [6]: > 195 µM (not active) | CC50 [7]: > 40 µM (active)

C=C(C)C1CC=C(CN2CCN(Cc3ccccc3)CC2)CC1 (configuration not stated)
EC50 [8]: > 60 µM (not active) | EC50 (cells): 0.189 µM (active) | EC50 [9]: < 0.1 µM (active)

Cn1nc(CC(=O)Nc2ncc(Br)s2)c2ccccc2c1=O
IC50 (Estrogen receptor beta): > 50 µM (not active)

COc1ccccc1N=C(S)N(Cc1ccco1)Cc1cc2cc(C)ccc2nc1O
IC50 (Prothrombin): > 50 µM (not active)

O=C(NCc1cccnc1)/C(=C/c1ccc(-c2cccc(Cl)c2)o1)S(=O)(=O)c1ccccc1
EC50 [2]: 2.02 µM (active) | AC50 (INS1): 6.06 µM (active) | EC50 [3]: 2.02 µM (active) | AC50 [10]: 1.73 µM (active)

CCc1ccc(NC2CC(=O)N(c3ccc(OC)cc3OC)C2=O)cc1 (configuration not stated)
IC50 (Prothrombin): > 50 µM (not active)

Cc1nc2c(=O)[nH]c(=S)[nH]c2nc1O
AC50 (Caspase-6): 6.58 µM (active) | AC50 [4]: 16.2 µM (active)

CC(C)NC(=O)CSc1nc(-c2ccccc2)cs1
IC50 (Prothrombin): > 50 µM (not active)

Reference: ChEMBL document CHEMBL1201862, “PubChem BioAssay data set” (2004)
